Assay results as given in ChEMBL document CHEMBL2413072, “Synthesis and in vitro anticancer studies of novel C-2 arylidene congeners of lantadenes” (2013).

Experiments:
Type in all cases: functional
HT-29 [1] = experiment: Growth inhibition of human HT-29 cells by sulforhodamine B assay
SK-OV-3 [2] = experiment: Growth inhibition of human SKOV3 cells assessed as cell growth at 10^-4 M by sulforhodamine B assay; settings: read-out: Activity
CCRF-CEM = experiment: Growth inhibition of human CCRF-CEM cells assessed as cell growth at 10^-8 M by sulforhodamine B assay; settings: read-out: Activity
K562 [3] = experiment: Growth inhibition of human K562 cells assessed as cell growth at 10^-4 M by sulforhodamine B assay; settings: read-out: Activity
MDA-MB-435 = experiment: Growth inhibition of human MDA-MB-435 cells assessed as cell growth at 10^-8 M by sulforhodamine B assay; settings: read-out: Activity
K562 [4] = experiment: Growth inhibition of human K562 cells by sulforhodamine B assay
HCT-116 [5] = experiment: Growth inhibition of human HCT116 cells assessed as cell growth at 10^-6 M by sulforhodamine B assay; settings: read-out: Activity
MDA-MB-468 [6] = experiment: Growth inhibition of human MDA-MB-468 cells assessed as cell growth at 10^-7 M by sulforhodamine B assay; settings: read-out: Activity
SK-MEL-28 = experiment: Growth inhibition of human SK-MEL-28 cells by sulforhodamine B assay
HOP-92 = experiment: Growth inhibition of human HOP92 cells assessed as cell growth at 10^-4 M by sulforhodamine B assay; settings: read-out: Activity
SR = experiment: Growth inhibition of human SR cells assessed as cell growth at 10^-7 M by sulforhodamine B assay; settings: read-out: Activity
OVCAR-3 = experiment: Growth inhibition of human OVCAR3 cells assessed as cell growth at 10^-8 M by sulforhodamine B assay; settings: read-out: Activity
SK-MEL-5 = experiment: Growth inhibition of human SK-MEL-5 cells by sulforhodamine B assay
ACHN [7] = experiment: Growth inhibition of human ACHN cells assessed as cell growth at 10^-8 M by sulforhodamine B assay; settings: read-out: Activity
MDA-MB-468 [8] = experiment: Growth inhibition of human MDA-MB-468 cells assessed as cell growth at 10^-4 M by sulforhodamine B assay; settings: read-out: Activity
CAKI-1 = experiment: Growth inhibition of human CAKI-1 cells assessed as cell growth at 10^-8 M by sulforhodamine B assay; settings: read-out: Activity
OVCAR-4 [9] = experiment: Growth inhibition of human OVCAR4 cells by sulforhodamine B assay
ACHN [10] = experiment: Growth inhibition of human ACHN cells assessed as cell growth at 10^-7 M by sulforhodamine B assay; settings: read-out: Activity
SW-620 = experiment: Growth inhibition of human SW620 cells by sulforhodamine B assay
SK-OV-3 [11] = experiment: Growth inhibition of human SKOV3 cells assessed as cell growth at 10^-6 M by sulforhodamine B assay; settings: read-out: Activity
DU-145 = experiment: Growth inhibition of human DU145 cells by sulforhodamine B assay
TK-10 = experiment: Growth inhibition of human TK10 cells by sulforhodamine B assay
A498 [12] = experiment: Growth inhibition of human A498 cells assessed as cell growth at 10^-7 M by sulforhodamine B assay; settings: read-out: Activity
HOP-62 = experiment: Growth inhibition of human HOP62 cells assessed as cell growth at 10^-4 M by sulforhodamine B assay; settings: read-out: Activity
NCI-H226 = experiment: Growth inhibition of human NCI-H226 cells assessed as cell growth at 10^-6 M by sulforhodamine B assay; settings: read-out: Activity
HCT-116 [13] = experiment: Growth inhibition of human HCT116 cells assessed as cell growth at 10^-4 M by sulforhodamine B assay; settings: read-out: Activity
A498 [14] = experiment: Growth inhibition of human A498 cells assessed as cell growth at 10^-8 M by sulforhodamine B assay; settings: read-out: Activity
MCF7 = experiment: Growth inhibition of human MCF7 cells by sulforhodamine B assay
BT-549 = experiment: Growth inhibition of human BT549 cells assessed as cell growth at 10^-7 M by sulforhodamine B assay; settings: read-out: Activity
SK-MEL-2 [15] = experiment: Growth inhibition of human SK-MEL-2 cells by sulforhodamine B assay
COLO 205 = experiment: Growth inhibition of human COLO205 cells assessed as cell growth at 10^-6 M by sulforhodamine B assay; settings: read-out: Activity
HT-29 [16] = experiment: Growth inhibition of human HT-29 cells assessed as cell growth at 10^-7 M by sulforhodamine B assay; settings: read-out: Activity
SF-268 = experiment: Growth inhibition of human SF268 cells assessed as cell growth at 10^-4 M by sulforhodamine B assay; settings: read-out: Activity
OVCAR-4 [17] = experiment: Growth inhibition of human OVCAR4 cells assessed as cell growth at 10^-7 M by sulforhodamine B assay; settings: read-out: Activity
LOX IMVI = experiment: Growth inhibition of human LOXIMVI cells assessed as cell growth at 10^-7 M by sulforhodamine B assay; settings: read-out: Activity
OVCAR-4 [18] = experiment: Growth inhibition of human OVCAR4 cells assessed as cell growth at 10^-6 M by sulforhodamine B assay; settings: read-out: Activity
SK-MEL-2 [19] = experiment: Growth inhibition of human SK-MEL-2 cells assessed as cell growth at 10^-4 M by sulforhodamine B assay; settings: read-out: Activity
M14 = experiment: Growth inhibition of human M14 cells by sulforhodamine B assay
[20] = read-out: LC50 (the source's name)
[21] = read-out: pLC50 (the source's name) (converted)

SMILES: C/C=C(/C)C(=O)O[C@@H]1CC(C)(C)C[C@H]2C3=CC[C@@H]4[C@@]5(C)CC[C@H](O)C(C)(C)[C@@H]5CC[C@@]4(C)[C@]3(C)CC[C@@]12C(=O)O [Reduced Lantadene A]
- GI50 (HT-29 [1]; read-out: GI50): 2.16 µM
- LC50 (50% cell kill) (HT-29 [1]; read-out: LC50): 8.77 µM
- TGI (HT-29 [1]; read-out: TGI): 4.35 µM
- GI50 (HT-29 [1]; read-out: pGI50 (converted)): 2.14 µM
- LC50 (50% cell kill) (HT-29 [1]; read-out: pLC50 (converted)): 8.71 µM
- TGI (HT-29 [1]; read-out: pTGI (converted)): 4.37 µM
- growth at 100 µM (SK-OV-3 [2]): 4%
- growth at 0.01 µM (CCRF-CEM): 98%
- growth at 100 µM (K562 [3]): -2%
- growth at 0.01 µM (MDA-MB-435): 98%
- GI50 (K562 [4]; read-out: GI50): 2.64 µM
- LC50 (K562 [4]; read-out: LC50): > 100 µM
- TGI (K562 [4]; read-out: TGI): 30.4 µM
- GI50 (K562 [4]; read-out: pGI50 (converted)): 2.63 µM
- LC50 (K562 [4]; read-out: pLC50 (converted)): > 100 µM
- TGI (K562 [4]; read-out: pTGI (converted)): 30.2 µM
- growth at 1 µM (HCT-116 [5]): 82%
- growth at 0.1 µM (MDA-MB-468 [6]): 86%
- GI50 (SK-MEL-28; read-out: GI50): 1.9 µM
- TGI (SK-MEL-28; read-out: TGI): 4.27 µM
- GI50 (SK-MEL-28; read-out: pGI50 (converted)): 1.91 µM
- TGI (SK-MEL-28; read-out: pTGI (converted)): 4.27 µM
- growth at 100 µM (HOP-92): -73%
- growth at 0.1 µM (SR): 81%
- growth at 0.01 µM (OVCAR-3): 106%
- GI50 (SK-MEL-5; read-out: GI50): 1.8 µM
- CC50 (SK-MEL-5; [20]): 17.2 µM
- TGI (SK-MEL-5; read-out: TGI): 4.39 µM
- GI50 (SK-MEL-5; read-out: pGI50 (converted)): 1.78 µM
- CC50 (SK-MEL-5; [21]): 17.4 µM
- TGI (SK-MEL-5; read-out: pTGI (converted)): 4.37 µM
- growth at 0.01 µM (ACHN [7]): 105%
- growth at 100 µM (MDA-MB-468 [8]): -86%
- growth at 0.01 µM (CAKI-1): 96%
- GI50 (OVCAR-4 [9]; read-out: GI50): 1.77 µM
- TGI (OVCAR-4 [9]; read-out: TGI): 3.74 µM
- GI50 (OVCAR-4 [9]; read-out: pGI50 (converted)): 1.78 µM
- TGI (OVCAR-4 [9]; read-out: pTGI (converted)): 3.72 µM
- growth at 0.1 µM (ACHN [10]): 101%
- GI50 (SW-620; read-out: GI50): 2.31 µM
- CC50 (SW-620; [20]): > 100 µM
- TGI (SW-620; read-out: TGI): 6.62 µM
- GI50 (SW-620; read-out: pGI50 (converted)): 2.29 µM
- CC50 (SW-620; [21]): > 100 µM
- TGI (SW-620; read-out: pTGI (converted)): 6.61 µM
- growth at 1 µM (SK-OV-3 [11]): 98%
- GI50 (DU-145; read-out: GI50): 2.12 µM
- TGI (DU-145; read-out: TGI): 4.04 µM
- GI50 (DU-145; read-out: pGI50 (converted)): 2.14 µM
- TGI (DU-145; read-out: pTGI (converted)): 4.07 µM
- GI50 (TK-10; read-out: GI50): 2.25 µM
- CC50 (TK-10; [20]): 9.55 µM
- TGI (TK-10; read-out: TGI): 4.63 µM
- GI50 (TK-10; read-out: pGI50 (converted)): 2.24 µM
- CC50 (TK-10; [21]): 9.55 µM
- TGI (TK-10; read-out: pTGI (converted)): 4.68 µM
- growth at 0.1 µM (A498 [12]): 77%
- growth at 100 µM (HOP-62): -37%
- growth at 1 µM (NCI-H226): 83%
- growth at 100 µM (HCT-116 [13]): -62%
- growth at 0.01 µM (A498 [14]): 79%
- GI50 (MCF7; read-out: GI50): 3.09 µM
- CC50 (MCF7; [20]): > 100 µM
- TGI (MCF7; read-out: TGI): 16.5 µM
- GI50 (MCF7; read-out: pGI50 (converted)): 3.09 µM
- CC50 (MCF7; [21]): > 100 µM
- TGI (MCF7; read-out: pTGI (converted)): 16.6 µM
- growth at 0.1 µM (BT-549): 100%
- GI50 (SK-MEL-2 [15]; read-out: GI50): 2.2 µM
- CC50 (SK-MEL-2 [15]; [20]): 8.29 µM
- TGI (SK-MEL-2 [15]; read-out: TGI): 4.27 µM
- GI50 (SK-MEL-2 [15]; read-out: pGI50 (converted)): 2.19 µM
- CC50 (SK-MEL-2 [15]; [21]): 8.32 µM
- TGI (SK-MEL-2 [15]; read-out: pTGI (converted)): 4.27 µM
- growth at 1 µM (COLO 205): 104%
- growth at 0.1 µM (HT-29 [16]): 108%
- growth at 100 µM (SF-268): -34%
- growth at 0.1 µM (OVCAR-4 [17]): 99%
- growth at 0.1 µM (LOX IMVI): 100%
- growth at 1 µM (OVCAR-4 [18]): 88%
- growth at 100 µM (SK-MEL-2 [19]): -71%
- GI50 (M14; read-out: GI50): 1.81 µM
- TGI (M14; read-out: TGI): 3.92 µM
- GI50 (M14; read-out: pGI50 (converted)): 1.82 µM
- TGI (M14; read-out: pTGI (converted)): 3.89 µM
